For data set [1], the system named is Ctenocephalides felis. As to the kind of experiment: In-vitro flea exposure effectiveness (contact with collar strips or treated filter papers). The settings on record: filter paper 21 cm^2 loaded with 500 μL of 10 mg/mL in acetone, 24 (±1) hours; for Geometric Mean No. Live Fleas: 3 vials; for Percentage Reduction Live Fleas: versus acetone only control; for Vial 1 # Live Fleas / Vial 2 # Live Fleas / Vial 3 # Live Fleas: approximately 20 fleas. The procedure: The in-vitro susceptibility of Ctenocephalides felis exposed to treated filter papers and to external device compositions (antiparasitic collar) containing isoxazoline active agents (S)-Ia, (S)-Id and (Ia) was determined, wherein the collars comprise a polyvinyl chloride (PVC) matrix or a polybutylene succinate (PBS) matrix.
To determine the in-vitro susceptibility of Ctenocephalides felis exposed to treated filter papers or to the collars compositions comprising the isoxazoline active agent, approximately 20 fleas were transferred to vials containing either the collars or filter papers in accordance with the test groups outlined in Table 3. On Day 0, approximately 20 fleas were placed in 27×55 mm, 5 dram glass vials containing the collars comprising the active agent as outlined in Table 3 or in 60 mm×40 mm glass vials containing treated filter papers. The filter papers tested in groups 9-12 were loaded with 500 μL of a 10 mg/mL solution containing the active agent dissolved in acetone. […] Test vials were placed in an environmental chamber at approximately 28° C. and approximately 80% RH.
The number of dead fleas in each vial were counted on Day 1 at 24 (±1) hours after initial exposure. Fleas were counted as dead if they were not able to maintain an upright posture.

Data set [2] in a line: Isoxazoline compounds in dog hair. It counts as in vivo. The settings on record: hair collected on Day 110 from 5 areas, PVC collars, FIG. 6. The text has this:
Hair samples from each dog were collected on Day 110 from 5 different areas: (1) central thorax, (2) lower back/caudal region, (3) right thorax, (4) left thorax, and […] top of neck/base of skull above collar site. Suitable bioanalytical methods were used for analysis of the three isoxazoline compounds in dog hair. […] Results for the other two isoxazoline compounds Ia and (S)-Ia are very similar.

Data set [3] is described as follows: Plasma drug concentrations in dogs wearing PVC based isoxazoline collars. Type of data set: in vivo, dog. To be noted: 11% active, FIG. 5. The procedure:
PK data: Blood samples from all the dogs were taken periodically and drug concentrations in the plasma were analyzed (depicted in FIG. 5). […] In other words, these compounds are likely acting by a systemic mechanism, even though they are applied in a topical collar dosage form. These PK data appear also to correlate with the flea and tick efficacy data in Table 6 and 7 (e.g., compound (S)-Ia is the best, (S)-Id is the second, and Ia the third).

Turning to `O=C(CNC(=O)c1ccc(C2=NOC(c3cc(Cl)cc(C(F)(F)F)c3)(C(F)(F)F)C2)c2ccccc12)NCC(F)(F)F` (centres unmarked) [(Ia), 4-[5-[3-chloro-5-(trifluoromethyl)phenyl]-4,5-dihydro-5-(trifluoromethyl)-3-isoxazolyl]-N-[2-oxo-2-[(2,2,2-trifluoroethyl)amino]ethyl]-1-naphthalanecarboxamide], in data set [1], the “Geometric Mean No. Live Fleas” value came out at 19.6, the “Percentage Reduction Live Fleas” value turned out to be 3.3%, the “Vial 1 # Live Fleas” value stood at 19 and the “Vial 2 # Live Fleas” value is 21. Moreover, in data set [1], the “Vial 3 # Live Fleas” value came to 19. Also, the “Level of the drug in dog hair, top of the neck (collar site) compared with other areas” value (“Level of the drug … compared with other areas” for short) in data set [2] is reported as “very similar”. In data set [3], the “PK data, order of the compounds (correlating with flea and tick efficacy)” value (“PK data, order of the compounds” below) was “the third”.
On to `O=C(CNC(=O)c1ccc(C2=NO[C@@](c3cc(Cl)cc(C(F)(F)F)c3)(C(F)(F)F)C2)c2ccccc12)NCC(F)(F)F` [(S)-Ia], for which, in data set [1], the “Geometric Mean No. Live Fleas” value turned out to be 19.0, the “Percentage Reduction Live Fleas” value came out at 6.5%, the “Vial 1 # Live Fleas” value was determined as 19 and the “Vial 2 # Live Fleas” value stood at 20. Further, the “Vial 3 # Live Fleas” value in data set [1] is reported as 18. For the same compound, in data set [2], the “Level of the drug … compared with other areas” value is listed as “very similar”. Also, the “PK data, order of the compounds” value in data set [3] is “the best”.
As for `O=C(CNC(=O)c1ccc(C2=NO[C@@](c3cc(Cl)c(F)c(C(F)(F)F)c3)(C(F)(F)F)C2)c2ccccc12)NCC(F)(F)F` [(S)-Id], in data set [2], the “Isoxazoline compound levels in hair throughout bodies of the dogs” value is on record as “detectable” and the “Level of the drug … compared with other areas” value is recorded as “highest level of the drug”. The “PK data, order of the compounds” value in data set [3] was “the second”.

Values taken from patent publication US12161089B2, “Parasiticidal collar comprising isoxazoline compounds” (Boehringer Ingelheim Animal Health USA Inc., priority 2020, dated 2024).
